“And” between values parts separate entries of the source, which are not always exact repeats. Identical values can stand only once. One block for each molecule: values may come before it.
Tested on: 435261-313-R-J1-PDC complex spheroid viability
Test: Anticancer human tumor 435261-313-R-J1-PDC patient-derived colon adenocarcinoma cell line growth inhibition [GQUAD]
Details: for viability, T/C: stronger effect = lower value
Source text: DNA G-quadruplex Stabilizer Agents in Combinations in Complex Spheroids
A high-throughput screen of multi-cell type tumor spheroids was designed to identify active combinations of DNA G-quadruplex stabilizer agents and targeted small molecules. Complex spheroids include a stromal component modeled by human endothelial cells (HUVEC) and fibroblasts modeled by human mesenchymal stem cells (MSCs). The concentration ranges selected for each drug and investigational agent were based upon clinically achievable concentrations if the clinical Cmax of the agent was known.
Compounds. The drugs and investigational agents: pidnarulex (CX-5461; NSC782164), APTO-253 (NSC789042), BRACO-19 (NSC847499), peposertib (NSC802822), ceralasertib (NSC780249), elimusertib (NSC800525), camonsertib (NSC841442), AZD-1390 (NSC803789), olaparib (NSC753686), talazoparib (NSC767125), ART-558 (NSC835418), sotorasib (NSC818433), MRTX-1133 (NSC836407), SN-38 (NSC673596), topotecan (NSC609699), etoposide (NSC141540), doxorubicin (NSC123127), gemcitabine (NSC613327), 5-fluorouracil (NSC19893), paclitaxel (NSC125973), vemurafenib (NSC761431), panobinostat (NSC761190), R-306465 (JNJ-16241199; NSC773264), adavosertib (NSC754352), TP-3654 (NSC805149), carboplatin (NSC241240), KSQ-4279 (NSC840948), and staurosporine (NSC755774) were obtained from the National Cancer Institute (NCI) Developmental Therapeutics Program Chemical Repository (34). The FDA-approved anticancer drug set is available from the NCI Developmental Therapeutics Program. […] The stock solutions were prepared in dimethyl sulfoxide (DMSO, Sigma-Aldrich, St. Louis, MO, cat. D2650) at 800-fold the tested concentration and stored at -70 degrees C prior to their use. All drugs and investigational agents were tested over a range starting from a high concentration at or near the clinical Cmax and decreasing in half-log increments. If the clinical Cmax for an agent had not been determined, the highest concentration tested was 10 microM.
2.3 Cell Culture. All cells were maintained in an incubator at 37 degrees C and 5% CO2 with 95% humidity. The PDC lines were cultured according to standard operating procedures established by the NCI PDMR. All PDCs were thawed and cultured in Matrigel-coated flasks prepared with a working solution of 1X Ham's F-12 nutrient mix, without supplementation (Invitrogen, cat. 11765054), 100 U/mL penicillin-streptomycin (Invitrogen, cat. 15140122), and 2.5% Matrigel (Corning Inc., cat. 354248) for the first three passages. The 857933-349-R-J2-PDC line was cultured in 6C/Colon 1B media, which includes advanced DMEM/F-12 (Thermo Fisher Scientific, cat. 12634028), 10 mM HEPES (Thermo Fisher Scientific, cat. 15630080), 1X GlutaMAX supplement (Thermo Fisher Scientific, cat. 35050061), 0.1 mg/mL primocin (InvivoGen, cat. ant-pm-2), 10% defined fetal bovine serum, heat inactivated (HyClone Laboratories Inc., cat. SH30070.03HI), 50% L-WRN conditioned media (ATCC, cat. CRL-3276), 1.25 mM N-Acetyl-L-cysteine (Sigma-Aldrich, cat. A9165), 10 mM nicotinamide (Sigma-Aldrich, cat. N0636), 1X B-27 supplement (Thermo Fisher Scientific, cat. 17504044), 1X N-2 supplement (Thermo Fisher Scientific, cat. 17502048), 10 microM Y-27632 dihydrochloride (Tocris Bioscience, cat. 1254), and 50 ng/mL human EGF recombinant protein (Thermo Fisher Scientific, cat. PHG0311). The 485176-168-R4-J1-PDC line was cultured in Panc media, which includes all 6C/Colon 1B media components plus 100 ng/mL human FGF-10 (Thermo Fisher Scientific, cat. 100-26), 500 nM SB-431542 (Selleckchem, cat. S1067), and gastrin (Tocris, cat. 3006).
[…]
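Note: spheroids exposed to the agents for seven days before readout.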
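Throughout, for viability, T/C: percent of vehicle control viability with DMSO wells as 100%.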

IC50 (curve of first compound, second compound 0.0316 µM): > 10000 nM
IC50 (curve of first compound, second compound 0.1 µM): > 10000 nM
IC50 (curve of first compound, second compound 0.316 µM): > 10000 nM
IC50 (curve of first compound, second compound 1 µM): < 31.6 nM
IC50 (curve of first compound, second compound 3.16 µM): < 31.6 nM
IC50 (curve of first compound, second compound 10 µM): < 31.6 nM
SMILES: O=c1[nH]cc(F)c(=O)[nH]1 + Cc1cnc(CNC(=O)c2c(=O)c3ccc(N4CCCN(C)CC4)nc3n3c2sc2ccccc23)cn1
viability, T/C (second compound 0.0316 µM, first compound 0.0316 µM): 85.2%
viability, T/C (second compound 0.0316 µM, first compound 0.1 µM): 68.1%
viability, T/C (second compound 0.0316 µM, first compound 0.316 µM): 76.1%
viability, T/C (second compound 0.0316 µM, first compound 1 µM): 67.4%
viability, T/C (second compound 0.0316 µM, first compound 3.16 µM): 81.4%
viability, T/C (second compound 0.0316 µM, first compound 10 µM): 86.7%
viability, T/C (second compound 0.1 µM, first compound 0.0316 µM): 68.8%
viability, T/C (second compound 0.1 µM, first compound 0.1 µM): 64%
viability, T/C (second compound 0.1 µM, first compound 0.316 µM): 56.1%
viability, T/C (second compound 0.1 µM, first compound 1 µM): 65.7%
viability, T/C (second compound 0.1 µM, first compound 3.16 µM): 81.9%
viability, T/C (second compound 0.1 µM, first compound 10 µM): 61.1%
viability, T/C (second compound 0.316 µM, first compound 0.0316 µM): 57.3%
viability, T/C (second compound 0.316 µM, first compound 0.1 µM): 59.5%
viability, T/C (second compound 0.316 µM, first compound 0.316 µM): 56.7%
viability, T/C (second compound 0.316 µM, first compound 1 µM): 56%
viability, T/C (second compound 0.316 µM, first compound 3.16 µM): 67%
viability, T/C (second compound 0.316 µM, first compound 10 µM): 60.6%
viability, T/C (second compound 1 µM, first compound 0.0316 µM): 41.5%
viability, T/C (second compound 1 µM, first compound 0.1 µM): 45.9%
viability, T/C (second compound 1 µM, first compound 0.316 µM): 47.6%
viability, T/C (second compound 1 µM, first compound 1 µM): 47%
viability, T/C (second compound 1 µM, first compound 3.16 µM): 55.1%
viability, T/C (second compound 1 µM, first compound 10 µM): 40.2%
viability, T/C (second compound 3.16 µM, first compound 0.0316 µM): 20.3%
viability, T/C (second compound 3.16 µM, first compound 0.1 µM): 19.4%
viability, T/C (second compound 3.16 µM, first compound 0.316 µM): 17.6%
viability, T/C (second compound 3.16 µM, first compound 1 µM): 24.2%
viability, T/C (second compound 3.16 µM, first compound 3.16 µM): 18.9%
viability, T/C (second compound 3.16 µM, first compound 10 µM): 23.6%
viability, T/C (second compound 10 µM, first compound 0.0316 µM): 0.16%
viability, T/C (second compound 10 µM, first compound 0.1 µM): 0.18%
viability, T/C (second compound 10 µM, first compound 0.316 µM): 0.23%
viability, T/C (second compound 10 µM, first compound 1 µM): 0.21%
viability, T/C (second compound 10 µM, first compound 3.16 µM): 0.23%
viability, T/C (second compound 10 µM, first compound 10 µM): 0.21%

IC50 (compound alone, run of 02/20/2024): 1.81 µM [middle of 4 runs]
IC50 (compound alone, run of 02/26/2024): 1110 nM and 949 nM and 3310 nM
SMILES: Cc1[nH]c2ccc(F)cc2c1-c1nc2c3cccnc3c3ncccc3c2[nH]1
viability, T/C (compound 0.0316 µM): 99.6% [middle of 8 runs]
viability, T/C (compound 3.16 µM): 30.2% [middle of 8 runs]
viability, T/C (compound 10 µM): 24.5% [middle of 8 runs]

IC50 (curve of compound): > 10000 nM
SMILES: O=c1[nH]cc(F)c(=O)[nH]1
viability, T/C (compound 0.0316 µM): 88.6% and 164% and 121%
viability, T/C (compound 0.1 µM): 71.2% and 82.5% and 101%
viability, T/C (compound 0.316 µM): 83% and 89.5% and 119%
viability, T/C (compound 1 µM): 61.4% and 63.8% and 109%
viability, T/C (compound 3.16 µM): 63.2% and 95% and 99.5%
viability, T/C (compound 10 µM): 63.7% and 75% and 70.3%

IC50 (curve of compound): 665 nM
SMILES: CC(C)(O)C1CCC(Nc2ccc3ncc(-c4cccc(C(F)(F)F)c4)n3n2)CC1 (configuration not stated)
viability, T/C (compound 0.0316 µM): 60.2%
viability, T/C (compound 0.1 µM): 82%
viability, T/C (compound 0.316 µM): 82.5%
viability, T/C (compound 1 µM): 36.3%
viability, T/C (compound 3.16 µM): 9.61%
viability, T/C (compound 10 µM): 12.9%

IC50 (curve of compound): > 10000 nM
SMILES: Nc1ccn(C2OC(CO)C(O)C2(F)F)c(=O)n1 (configuration not stated)
viability, T/C (compound 0.0316 µM): 54.8% and 88.1% and 71.3%
viability, T/C (compound 0.1 µM): 48.5% and 89.5% and 58.6%
viability, T/C (compound 0.316 µM): 54.9% and 84.8% and 61.3%
viability, T/C (compound 1 µM): 51.8% and 98.2% and 50.4%
viability, T/C (compound 3.16 µM): 58.7% and 76.3% and 69.7%
viability, T/C (compound 10 µM): 51.3% and 66.3% and 51.9%

IC50 (curve of compound): > 10000 nM
SMILES: Cc1cccc(N(C)C(=O)C2C(O)CCN2c2nc(C)cc(C(F)(F)F)c2C#N)c1 (configuration not stated)
viability, T/C (compound 0.0316 µM): 102% and 105% and 116%
viability, T/C (compound 0.1 µM): 94.8% and 106% and 102%
viability, T/C (compound 0.316 µM): 138% and 103% and 89.8%
viability, T/C (compound 1 µM): 106% and 93.5% and 114%
viability, T/C (compound 3.16 µM): 100% and 89.1% and 85.5%
viability, T/C (compound 10 µM): 122% and 94.3% and 84%

IC50 (curve of compound): > 10000 nM
SMILES: COc1cc(C2c3cc4c(cc3C(OC3OC5COC(C)OC5C(O)C3O)C3COC(=O)C23)OCO4)cc(OC)c1O (configuration not stated)
viability, T/C (compound 0.0316 µM): 118% and 96.2%
viability, T/C (compound 0.1 µM): 67.4% and 93.6%
viability, T/C (compound 0.316 µM): 83.6% and 91.3%
viability, T/C (compound 1 µM): 56.6% and 80.2%
viability, T/C (compound 3.16 µM): 62.7% and 78.5%
viability, T/C (compound 10 µM): 52.2% and 61.6%

Source: PubChem BioAssay AID2060494 (Molecular Pharmacology Branch, DTP, NCI, 2025)
